Assay results: PMC4104029, “Mechanism of Action of Compound-13: An α1-Selective Small Molecule Activator of AMPK” (Chemistry & Biology, 2014)

What was measured:
[1] = target: T1, WT FLAG-α2, β1, and γ1 in COS1 cells (Homo sapiens, UniProt P54619+P54646); test: Kinase activity in anti-FLAG immunoprecipitates from treated COS1 cells; format: cell-based; settings: up to 100 μM, 1 h
T1 construct: expressed in transfected cells; host or cells: COS-1 cells
Text: (§1) (Needleman and Wunsch, 1970) and edited using ESPript (Gouet, et al., 2003). Secondary structure was derived from PDBID 2Y94. The phosphotransferase domain is shaded green (T-loop phosphorylation site is indicated with a star), the autoinhibitory domain in blue and the C-terminal domain in yellow. Regulatory elements in the α-linker are also indicated: α-hook in pink and α-RIMs in orange. Black lines indicate the position of the epitopes recognised by α-subunit specific antibodies used in this study. (B) COS-1 cells were seeded into 6-well plates and transiently transfected with pCMV-AMPKβ1, pCMV-AMPKγ1 and either pCMV-FLAG-AMPKα2 WT or pCMV-FLAG-AMPKα2/α1 LOOP chimera using FuGENE HD.
(§2) After 24 h cells were treated with the indicated compounds for 1 h and kinase activity determined in anti-FLAG immunoprecipitates under standard conditions. […]
(§3) Mouse hepatocytes were incubated with the indicated compounds in the absence (Resting) or presence of 10 mU/ml insulin for 60 min. Lysates were analysed by Western blotting using the indicated antibodies. […]
(§4) Yeast acetate CoA ligase (Sigma) was assayed in reactions containing 50 mM TES pH 7.4, 0.1 mM EDTA, 5 mM MgCl2, 4 mM ATP, 0.2 mM coenzyme A, 5 mM DTT and increasing concentrations of C2 and C13 (0 – 100 μM). The formation of pyrophosphate (PPi) was monitored by reduction of PPi-molybdate complexes as described in Methods. […]

Yeast acetate CoA ligase = test: Acetate CoA ligase assay; format: biochemical; settings: 0–100 μM
Text: as §1, §2, §3, §4

T1 sequence (P54646 whole entry): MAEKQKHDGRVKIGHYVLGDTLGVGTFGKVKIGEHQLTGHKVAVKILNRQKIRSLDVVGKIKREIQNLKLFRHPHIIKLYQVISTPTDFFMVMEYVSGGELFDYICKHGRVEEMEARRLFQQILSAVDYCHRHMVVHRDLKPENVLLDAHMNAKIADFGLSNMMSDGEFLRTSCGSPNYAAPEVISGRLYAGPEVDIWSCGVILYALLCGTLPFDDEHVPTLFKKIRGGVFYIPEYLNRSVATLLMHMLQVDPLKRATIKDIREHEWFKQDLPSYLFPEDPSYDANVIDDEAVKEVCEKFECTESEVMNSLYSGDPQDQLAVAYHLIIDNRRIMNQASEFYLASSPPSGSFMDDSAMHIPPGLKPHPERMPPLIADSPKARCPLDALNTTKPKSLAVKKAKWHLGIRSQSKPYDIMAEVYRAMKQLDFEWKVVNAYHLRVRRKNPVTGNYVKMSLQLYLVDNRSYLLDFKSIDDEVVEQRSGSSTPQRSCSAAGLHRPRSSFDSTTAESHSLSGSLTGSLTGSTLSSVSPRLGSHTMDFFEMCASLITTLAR
T1 sequence (Q9Y478 whole entry partner): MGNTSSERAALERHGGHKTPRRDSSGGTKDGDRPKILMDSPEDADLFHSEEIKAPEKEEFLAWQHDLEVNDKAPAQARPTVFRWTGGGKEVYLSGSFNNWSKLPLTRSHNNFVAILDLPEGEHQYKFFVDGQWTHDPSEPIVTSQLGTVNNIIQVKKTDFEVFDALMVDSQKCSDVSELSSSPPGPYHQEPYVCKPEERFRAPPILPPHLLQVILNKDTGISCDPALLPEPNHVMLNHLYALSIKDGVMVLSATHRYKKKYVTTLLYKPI
T1 sequence (P54619 whole entry): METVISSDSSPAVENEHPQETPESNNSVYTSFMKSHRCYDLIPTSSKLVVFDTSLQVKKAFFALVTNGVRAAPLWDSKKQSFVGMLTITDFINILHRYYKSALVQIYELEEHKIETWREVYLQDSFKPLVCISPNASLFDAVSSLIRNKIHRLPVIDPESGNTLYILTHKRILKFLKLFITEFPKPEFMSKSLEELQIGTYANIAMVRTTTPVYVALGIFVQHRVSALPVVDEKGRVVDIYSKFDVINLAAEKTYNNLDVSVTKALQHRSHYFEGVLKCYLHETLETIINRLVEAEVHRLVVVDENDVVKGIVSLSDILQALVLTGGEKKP

CC(C)C(=O)OCOP(=O)(OCOC(=O)C(C)C)c1ccc(C2=NOC(=O)C2)o1 [Compound C13]
kinase activation in cells [1]: unresponsive | IC50 (Yeast acetate CoA ligase): 33 ± 2.2 µM
